The record followed here is ChEMBL document CHEMBL1152047, “(cis)-3-methyl-1,5-benzothiazepine-4-ones: potent analogs of the calcium channel blocker diltiazen” (Bioorg Med Chem Lett, 1993).

The experiment is filed under the species Oryctolagus cuniculus. Nature of the experiment: Vasorelaxant potency determined by relaxation of potassium depolarized rabbit aortic strips. The class given is functional. The note with it: Aorta.

In turn, `COc1ccc([C@@H]2Sc3cc(OC)ccc3N(CCN(C)C)C(=O)[C@@H]2C)cc1` came in with a half-maximal inhibitory concentration (IC50) of 10 nM.
`COc1ccc([C@@H]2Sc3cc(OC)ccc3N(CCN(C)C)C(=O)[C@@H]2OC(C)=O)cc1`: the IC50 worked out at 120 nM.
Regarding `COc1ccc([C@@H]2Sc3cc(C(F)(F)F)ccc3N(CCN(C)C)C(=O)[C@@H]2C)cc1`, the IC50 came out at 22 nM.
Take `COc1ccc([C@@H]2Sc3ccccc3N(CCN(C)C)C(=O)[C@@H]2C)cc1`: the IC50 worked out at 82 nM.

The term IC50 denotes the concentration at which inhibition is half-maximal. A higher IC50 goes with a need for much substance.
